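Interpolation was linear, between the two tested concentrations surrounding the appropriate level; five concentrations were tested over 48 hours in 96-well plates. The concentration for 50% growth inhibition is given as GI50.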 Activity calls are given as the source filed them. Cut-off read from the data, not from the text of the source: active = GI50 up to about 1.1 µM and inactive = higher.
Experiments:
Assay in all cases: inhibition of tumour cell growth, NCI panel, 48 h
A549 = system: A549
ACHN = system: ACHN
CAKI-1 = system: CAKI-1
CCRF-CEM = system: CCRF-CEM
COLO 205 = system: COLO 205
DU-145 = system: DU-145
HCT-116 = system: HCT-116
HCT-15 = system: HCT-15
HOP-92 = system: HOP-92
IGROV-1 = system: IGROV-1
M14 = system: M14
MOLT-4 = system: MOLT-4
NCI/ADR-RES = system: NCI/ADR-RES
OVCAR-3 = system: OVCAR-3
OVCAR-4 = system: OVCAR-4
RXF 393 = system: RXF 393
SK-OV-3 = system: SK-OV-3
T47D = system: T47D
UO-31 = system: UO-31
Malme-3M = system: Malme-3M

| SMILES | GI50 (A549) | GI50 (ACHN) | GI50 (CAKI-1) | GI50 (CCRF-CEM) | GI50 (COLO 205) | GI50 (DU-145) | GI50 (HCT-116) | GI50 (HCT-15) [µM] | GI50 (HOP-92) | GI50 (IGROV-1) | GI50 (M14) | GI50 (MOLT-4) | GI50 (NCI/ADR-RES) | GI50 (OVCAR-3) | GI50 (OVCAR-4) | GI50 (RXF 393) | GI50 (SK-OV-3) | GI50 (T47D) | GI50 (UO-31) | GI50 (Malme-3M) |
| --- | --- | --- | --- | --- | --- | --- | --- | --- | --- | --- | --- | --- | --- | --- | --- | --- | --- | --- | --- | --- |
| NC1CC(=O)c2sccc21 (stereo unspecified) | > 100 µM (inactive) | > 100 µM (inactive) | > 100 µM (inactive) | > 100 µM (inactive) | > 100 µM (inactive) | > 100 µM (inactive) | > 100 µM (inactive) | > 100 | > 100 µM (inactive) | > 100 µM (inactive) | > 100 µM (inactive) | > 100 µM (inactive) | > 100 µM (inactive) | > 100 µM (inactive) | > 100 µM (inactive) | 29.6 µM (inactive) | > 100 µM (inactive) | > 100 µM (inactive) | > 100 µM (inactive) | – |
| O=c1ss/c(=N\c2ccccc2)n1-c1ccccc1 | 35.4 µM (inactive) | 17.1 µM (inactive) | – | 4.14 µM (inactive) | 26.1 µM (inactive) | 16.9 µM (inactive) | – | 17.8 | 21.6 µM (inactive) | – | 19 µM (inactive) | 28.7 µM (inactive) | 28.3 µM (inactive) | 22.3 µM (inactive) | 17 µM (inactive) | – | > 100 µM (inactive) | 16.3 µM (inactive) | 17.5 µM (inactive) | > 100 µM (inactive) |
| O=C(Cc1ccccc1)NNc1nc(NNC(=O)c2ccncc2)nc(Nc2ccc([N+](=O)[O-])cc2)n1 | > 10 µM (inactive) | > 10 µM (inactive) | > 10 µM (inactive) | 7.57 µM (inactive) | > 10 µM (inactive) | > 10 µM (inactive) | > 10 µM (inactive) | 6.22 | > 10 µM (inactive) | > 10 µM (inactive) | > 10 µM (inactive) | > 10 µM (inactive) | > 10 µM (inactive) | > 10 µM (inactive) | > 10 µM (inactive) | – | > 10 µM (inactive) | > 10 µM (inactive) | > 10 µM (inactive) | > 10 µM (inactive) |
| COC1C(O)C(C)OC(OC2C(Oc3cccc4c(O)c5c(=O)oc6ccc(C)c7c(=O)oc(c34)c5c67)OC(C)C(O)C2O)C1O (stereo unspecified) | 6.14 µM (inactive) | 4.98 µM (inactive) | – | 0.836 µM (active) | 3.41 µM (inactive) | 6.65 µM (inactive) | 0.731 µM (active) | 3.03 | 0.233 µM (active) | 1.87 µM (inactive) | 4.13 µM (inactive) | 0.488 µM (active) | 11.8 µM (inactive) | 2.34 µM (inactive) | 6.24 µM (inactive) | 1.34 µM (inactive) | 4.37 µM (inactive) | 0.968 µM (active) | 4.59 µM (inactive) | 1.35 µM (inactive) |
| C1CNCCNCCN1 | > 100 µM (inactive) | > 100 µM (inactive) | > 100 µM (inactive) | > 100 µM (inactive) | > 100 µM (inactive) | > 100 µM (inactive) | > 100 µM (inactive) | > 100 | > 100 µM (inactive) | > 100 µM (inactive) | > 100 µM (inactive) | > 100 µM (inactive) | > 100 µM (inactive) | > 100 µM (inactive) | > 100 µM (inactive) | > 100 µM (inactive) | – | > 100 µM (inactive) | > 100 µM (inactive) | – |
| CN1C(=O)C2(C=CC(O)CC2)c2ccccc21 (stereo unspecified) | > 100 µM (inactive) | > 100 µM (inactive) | > 100 µM (inactive) | > 100 µM (inactive) | > 100 µM (inactive) | > 100 µM (inactive) | > 100 µM (inactive) | > 100 | > 100 µM (inactive) | > 100 µM (inactive) | > 100 µM (inactive) | > 100 µM (inactive) | > 100 µM (inactive) | > 100 µM (inactive) | > 100 µM (inactive) | – | > 100 µM (inactive) | > 100 µM (inactive) | > 100 µM (inactive) | – |
| C=C1CC2(CCOc3ccc(Cl)cc32)OC1=O (stereo unspecified) | 13.5 µM (inactive) | 4.86 µM (inactive) | 2.33 µM (inactive) | 1.45 µM (inactive) | 1.64 µM (inactive) | 12.7 µM (inactive) | 1.63 µM (inactive) | 0.935 | 3.48 µM (inactive) | 8.57 µM (inactive) | 2.54 µM (inactive) | 0.805 µM (active) | 6.47 µM (inactive) | 1.39 µM (inactive) | 1.91 µM (inactive) | 2.23 µM (inactive) | 13.1 µM (inactive) | 4.93 µM (inactive) | 2.83 µM (inactive) | – |
| O=C(c1ccccc1)N1OCCC1Nc1ccc(Br)cc1 (stereo unspecified) | 3.64 µM (inactive) | 0.615 µM (active) | 4.03 µM (inactive) | 3.8 µM (inactive) | 1.81 µM (inactive) | 6.24 µM (inactive) | 4.25 µM (inactive) | 0.604 | – | > 10 µM (inactive) | 4.99 µM (inactive) | 4 µM (inactive) | 5.43 µM (inactive) | > 10 µM (inactive) | > 10 µM (inactive) | > 10 µM (inactive) | > 10 µM (inactive) | > 10 µM (inactive) | 1.87 µM (inactive) | 3.34 µM (inactive) |
| CCCCCCCCCCCCCCNC(=O)CCC(NC(=O)c1ccc(N(C)Cc2cnc3nc(N)nc(N)c3n2)cc1)C(=O)NCCCCCCCCCCCCCC (stereo unspecified) | 5.45 µM (inactive) | 6.38 µM (inactive) | 10.4 µM (inactive) | 0.773 µM (active) | 11.8 µM (inactive) | 13.9 µM (inactive) | 0.698 µM (active) | 2.52 | 14.8 µM (inactive) | 7.14 µM (inactive) | 0.441 µM (active) | 0.982 µM (active) | 39.8 µM (inactive) | 13.4 µM (inactive) | 12.5 µM (inactive) | 11.6 µM (inactive) | 10.4 µM (inactive) | 8.51 µM (inactive) | 13.8 µM (inactive) | – |
| Cc1cc2c(cc1Cl)SC(NNC(=O)c1ccccc1)=NS2(=O)=O | > 10 µM (inactive) | > 10 µM (inactive) | > 10 µM (inactive) | > 10 µM (inactive) | > 10 µM (inactive) | > 10 µM (inactive) | > 10 µM (inactive) | > 10 | – | > 10 µM (inactive) | > 10 µM (inactive) | > 10 µM (inactive) | > 10 µM (inactive) | > 10 µM (inactive) | > 10 µM (inactive) | > 10 µM (inactive) | > 10 µM (inactive) | > 10 µM (inactive) | – | > 10 µM (inactive) |
| C=CC1(CCC(Br)C(C)(C)Cl)CO1 (stereo unspecified) | > 10 µM (inactive) | > 10 µM (inactive) | > 10 µM (inactive) | > 10 µM (inactive) | > 10 µM (inactive) | > 10 µM (inactive) | > 10 µM (inactive) | > 10 | > 10 µM (inactive) | > 10 µM (inactive) | > 10 µM (inactive) | > 10 µM (inactive) | > 10 µM (inactive) | > 10 µM (inactive) | – | – | > 10 µM (inactive) | > 10 µM (inactive) | > 10 µM (inactive) | > 10 µM (inactive) |
| O=c1c2cc([N+](=O)[O-])cnc2sn1-c1ccc(Oc2ccccc2)cc1 | > 100 µM (inactive) | 53.1 µM (inactive) | – | 26.9 µM (inactive) | > 100 µM (inactive) | 24.8 µM (inactive) | 25.2 µM (inactive) | > 100 | 23 µM (inactive) | 82.8 µM (inactive) | 53.8 µM (inactive) | > 100 µM (inactive) | 32.8 µM (inactive) | 36 µM (inactive) | 25.8 µM (inactive) | – | 19.8 µM (inactive) | 10.8 µM (inactive) | 56.6 µM (inactive) | 21.7 µM (inactive) |
| Cc1c(C(=O)OCc2ccccc2)[n+]([O-])c2ccccc2[n+]1[O-] | 22.2 µM (inactive) | 74.3 µM (inactive) | 24.5 µM (inactive) | < 0.01 µM (active) | 18.5 µM (inactive) | 19.9 µM (inactive) | 25.1 µM (inactive) | 40.9 | 0.22 µM (active) | 13 µM (inactive) | 32.1 µM (inactive) | 5.4 µM (inactive) | 26.2 µM (inactive) | 30.3 µM (inactive) | 20.8 µM (inactive) | 23.7 µM (inactive) | 28 µM (inactive) | 13.4 µM (inactive) | 27.8 µM (inactive) | – |
| O=S(=O)(c1ccccc1)C1CN(Cc2ccccc2)CCN(Cc2ccccc2)C1 | 39.7 µM (inactive) | 39.4 µM (inactive) | 24.4 µM (inactive) | 5.14 µM (inactive) | 30 µM (inactive) | 80.5 µM (inactive) | 18.1 µM (inactive) | 25 | – | 35.8 µM (inactive) | 24.2 µM (inactive) | 7.24 µM (inactive) | 17.9 µM (inactive) | 26.6 µM (inactive) | 9.79 µM (inactive) | 10.4 µM (inactive) | > 71.6 µM (inactive) | 30 µM (inactive) | 19.3 µM (inactive) | 25.5 µM (inactive) |
| COc1ccc(-c2nc(O)c3ccccc3n2)cc1OC | 94.4 µM (inactive) | – | > 100 µM (inactive) | > 100 µM (inactive) | > 100 µM (inactive) | > 100 µM (inactive) | > 100 µM (inactive) | 50 | – | 24.6 µM (inactive) | > 100 µM (inactive) | > 100 µM (inactive) | 28.2 µM (inactive) | > 100 µM (inactive) | > 100 µM (inactive) | 26.4 µM (inactive) | 34.2 µM (inactive) | 30.3 µM (inactive) | > 100 µM (inactive) | > 100 µM (inactive) |

From ChEMBL document CHEMBL1201862, “PubChem BioAssay data set” (2004)
